Test results taken from patent US7932255B2, “2-aminocarbonyl substituted piperazine or diaza-cyclic compounds as apoptosis protein inhibitors (lap) modulators” (Novartis AG, priority 2006, dated 2011).
Where two headings read alike, the source gives them in different places.

Target: T1, XIAP (Homo sapiens, UniProt P98170)
T1 construct: GST
Assay: Disruption of the Smac peptide-(XIAP)BIR3 protein-protein interaction (Tables 2 and 3)
Assay type: binding
Method: IC50 values for Series A compounds for XIAP. An assay capable of measuring disruption of the Smac peptide-(XIAP)BIR3 protein-protein interaction is established in the art as described in Example 2. In this assay IAP Inhibitor compounds compete with an immobilized Smac peptide for occupancy of the BIR3 binding pocket of XIAP. The rationale for this strategy results from the mutually exclusive nature of either Caspase 9 or Smac binding to the BIR3 pocket.
Assays are performed and IC50 values are calculated as follows: […]
IC50 values are calculated by logarithmic regression analysis of the percentage inhibition of each compound at 4 concentrations (usually 3- or 10-fold dilution series starting at 10 μM). In each experiment, the actual inhibition by reference compound is used for normalization of IC50 values to the basis of an average value of the reference inhibitor: Normalized IC50=measured IC50 average ref. IC50/measured ref. IC50
Activity determinations of compounds herein using the testing method described herein and as are well known in the art, are used with the following test compounds of formula (I). […] “Activity” as used herein is defined as having IC50 values for IAP target inhibition of less than 10 μM. Specifically, in the table:
IC50 values for Series B compounds are provided for XIAP. Assays are performed as described above using methods well known in the art.

[1] = Series B compounds, Table 3, read-out: XIXP IC50
[2] = Series A compounds, Table 2, read-out: XIAP IC50

T1 sequence (P98170 248-358 limits assumed, species assumed): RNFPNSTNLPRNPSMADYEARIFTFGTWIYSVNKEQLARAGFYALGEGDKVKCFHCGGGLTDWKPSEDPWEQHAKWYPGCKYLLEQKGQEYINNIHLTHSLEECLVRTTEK

Structure (SMILES) | IC50 [1] [µM] | IC50 [2] [µM]
CN[C@@H](C)C(=O)N[C@H](C(=O)N1CCN(Cc2ccccc2)C[C@H]1C(=O)NC1CCc2ccccc21)C(C)C (stereo partly drawn) [Compound 62, (S)-4-Benzyl-1-[(S)-3-methyl-2-((S)-2-methylamino-propionylamino)-butyryi]-piperazine-2-carboxylic acid indan-1-ylamide] | < 10 | –
CCN1CCN(C(=O)[C@@H](NC(=O)[C@H](C)NC)C(C)C)[C@H](C(=O)NC2CCCc3ccccc32)C1 (stereo partly drawn) [Compound 32, (S)-4-Ethyl-1-[(S)-3-methyl-2-((S)-2-methylamino-propionylamino)-butyryl]-piperazine-2-carboxylic acid (1,2,3,4-tetrahydro-naphthalen-1-yl)-amide] | – | < 10
CN[C@@H](C)C(=O)N[C@H](C(=O)N1CCN(Cc2ccccc2)C[C@H]1C(=O)NC1CCCc2ccccc21)C(C)C (stereo partly drawn) [Compound 14, (S)-4-Benzyl-1-[(S)-3-methyl-2-((S)-2-methylamino-propionylamino)-butyryl]-piperazine-2-carboxylic acid (1,2,3,4-tetrahydro-naphthalen-1-yl)-amide] | – | < 10
CN[C@@H](C)C(=O)N[C@H](C(=O)N1CCNC[C@H]1C(=O)NC1CCCc2ccccc21)C(C)C (stereo partly drawn) [Compound 56, (S)-1-[(S)-3-Methyl-2-((S)-2-methylamino-propionylamino)-butyryl]-piperazine-2-carboxylic acid (1,2,3,4-tetrahydro-naphthalen-1-yl)-amide] | – | < 10
CN[C@@H](C)C(=O)N[C@H](C(=O)N1CCN(Cc2ccccc2Cl)C[C@H]1C(=O)NC1CCCc2ccccc21)C(C)C (stereo partly drawn) [Compound 45, (S)-4-(2-Chloro-benzyl)-1-[(S)-3-methyl-2-((S)-2-methylamino-propionylamino)-butyryl]-piperazine-2-carboxylic acid (1,2,3,4-tetrahydro-naphthalen-1-yl)-amide] | – | < 10
CN[C@@H](C)C(=O)N[C@H](C(=O)N1CCN(Cc2ccccc2)C[C@H]1C(=O)NCCCc1ccccc1)C(C)C [Compound 72, (S)-4-Benzyl-1-[(S)-3-methyl-2-((S)-2-methylamino-propionylamino)-butyryl]-piperazine-2-carboxylic acid (3-phenyl-propyl)-amide] | > 10 | –
CN[C@@H](C)C(=O)N[C@H](C(=O)N1CCN(CCC(C)(C)C)C[C@H]1C(=O)NC1CCCc2ccccc21)C(C)C (stereo partly drawn) [Compound 21, (S)-4-(3,3-Dimethyl-butyl)-1-[(S)-3-methyl-2-((S)-2-methylamino-propionylamino)-butyryl]-piperazine-2-carboxylic acid (1,2,3,4-tetrahydro-naphthalen-1-yl)-amide] | – | < 10
C[C@@H](C(=O)N[C@H](C(=O)N1CCN(Cc2ccccc2)C[C@H]1C(=O)N[C@@H]1CCCc2ccccc21)C1CCCCC1)N(C)C(=O)OC(C)(C)C [Compound 58, [(S)-1-((S)-2-{(S)-4-Benzyl-2-[(R)-(1,2,3,4-tetrahydro-naphthalen-1-yl)carbamoyl]-piperazin-1-yl}-1-cyclohexyl-2-oxo-ethylcarbamoyl)-ethyl]-methyl-carbamic acid tert-butyl ester] | – | > 10
CN[C@@H](C)C(=O)N[C@H](C(=O)N1CCN(C(=O)Nc2ccc(F)cc2)C[C@H]1C(=O)NC1CCCc2ccccc21)C(C)C (stereo partly drawn) [Compound 40, (S)-4-[(S)-3-Methyl-2-((S)-2-methylamino-propionylamino)-butyryl]-piperazine-1,3-dicarboxylic acid 1-[(4-fluoro-phenyl)-amide] 3-[(1,2,3,4-tetrahydro-naphthalen-1-yl)-amide]] | – | < 10
CN[C@@H](C)C(=O)N[C@H](C(=O)N1CCN(Cc2ccccc2)C[C@H]1C(=O)NC1CCCc2ccccc21)C(C)C (stereo partly drawn) [Compound 52, (S)-4-Benzyl-1-[(S)-3-methyl-2-((S)-2-methylamino-propionylamino)-butyryl]-piperazine-2-carboxylic acid (1,2,3,4-tetrahydro-naphthalen-1-yl)-amide] | – | < 10
CN[C@@H](C)C(=O)N[C@H](C(=O)N1CCN(Cc2ccccc2)C[C@H]1C(=O)NCCc1ccccc1)C(C)C [Compound 61, (S)-4-Benzyl-1-[(S)-3-methyl-2-((S)-2-methylamino-propionylamino)-butyryl]-piperazine-2-carboxylic acid phenethyl-amide] | < 10 | –
CN[C@@H](C)C(=O)N[C@H](C(=O)N1CCN(Cc2cccc(OC)c2)C[C@H]1C(=O)NC1CCCc2ccccc21)C(C)C (stereo partly drawn) [Compound 29, (S)-4-(3-Methoxy-benzyl)-1-[(S)-3-methyl-2-((S)-2-methylamino-propionylamino)-butyryl]-piperazine-2-carboxylic acid (1,2,3,4-tetrahydro-naphthalen-1-yl)-amide] | – | < 10
CN[C@@H](C)C(=O)N[C@H](C(=O)N1CCN(C(=O)Nc2ccccc2)C[C@H]1C(=O)NC1CCCc2ccccc21)C(C)C (stereo partly drawn) [Compound 41, (S)-4-[(S)-3-Methyl-2-((S)-2-methylamino-propionylamino)-butyryl]-piperazine-1,3-dicarboxylic acid 1-phenylamide 3-[(1,2,3,4-tetrahydro-naphthalen-1-yl)-amide]] | – | < 10
CN[C@@H](C)C(=O)N[C@H](C(=O)N1CCN(Cc2ccccc2)C[C@H]1C(=O)NCC1CCCCCC1)C(C)C [Compound 77, (S)-4-Benzyl-1-[(S)-3-methyl-2-((S)-2-methylamino-propionylamino)-butyryl]-piperazine-2-carboxylic acid cycloheptylmethyl-amide] | > 10 | –
CN[C@@H](C)C(=O)N[C@H](C(=O)N1CCN(Cc2ccccc2)C[C@H]1C(=O)NCc1nccs1)C(C)C [Compound 73, (S)-4-Benzyl-1-[(S)-3-methyl-2-((S)-2-methylamino-propionylamino)-butyryl]-piperazine-2-carboxylic acid (thiazol-2-ylmethyl)-amide] | > 10 | –
CN[C@@H](C)C(=O)N[C@H](C(=O)N1CCN(Cc2ccccc2)C[C@H]1C(=O)NCCc1ccncc1)C(C)C [Compound 69, (S)-4-Benzyl-1-[(S)-3-methyl-2-((S)-2-methylamino-propionylamino)-butyryl]-piperazine-2-carboxylic acid (2-pyridin-4-yl-ethyl)-amide] | > 10 | –
CN[C@@H](C)C(=O)N[C@H](C(=O)N1CCN(Cc2ccccc2)C[C@H]1C(=O)NC(Cc1ccccc1)Cc1ccccc1)C(C)C [Compound 80, (S)-4-Benzyl-1-[(S)-3-methyl-2-((S)-2-methylamino-propionylamino)-butyryl]-piperazine-2-carboxylic acid (1-benzyl-2-phenyl-ethyl)-amide] | < 10 | –
CN[C@@H](C)C(=O)N[C@H](C(=O)N1CCN(C(=O)N(C)c2ccccc2)C[C@H]1C(=O)NC1CCCc2ccccc21)C(C)C (stereo partly drawn) [Compound 50, (S)-4-[(S)-3-Methyl-2-((S)-2-methylamino-propionylamino)-butyryl]-piperazine-1,3-dicarboxylic acid 1-(methyl-phenyl-amide) 3-[(1,2,3,4-tetrahydro-naphthalen-1-yl)-amide]] | – | < 10
CN[C@@H](C)C(=O)N[C@H](C(=O)N1CCN(Cc2ccccc2)C[C@H]1C(=O)NC1CCCc2ccccc21)C(C)C (stereo partly drawn) [Compound 54, (S)-4-Benzyl-1-[(S)-3-methyl-2-((S)-2-methylamino-propionylamino)-butyryl]-piperazine-2-carboxylic acid (1,2,3,4-tetrahydro-naphthalen-1-yl)-amide] | – | < 10
CN[C@@H](C)C(=O)N[C@H](C(=O)N1CCN(C(=O)NC(C)C)C[C@H]1C(=O)NC1CCCc2ccccc21)C(C)C (stereo partly drawn) [Compound 48, (S)-4-[(S)-3-Methyl-2-((S)-2-methylamino-propionylamino)-butyryl]-piperazine-1,3-dicarboxylic acid 1-isopropylamide 3-[(1,2,3,4-tetrahydro-naphthalen-1-yl)-amide]] | – | < 10
CN[C@@H](C)C(=O)N[C@H](C(=O)N1CCN(Cc2ccc(C(F)(F)F)cc2)C[C@H]1C(=O)NC1CCCc2ccccc21)C(C)C (stereo partly drawn) [Compound 12, (S)-1-[(S)-3-Methyl-2-((S)-2-methylamino-propionylamino)-butyryl]-4-(4-trifluoromethyl-benzyl)-piperazine-2-carboxylic acid (1,2,3,4-tetrahydro-naphthalen-1-yl)-amide] | – | < 10
CN[C@@H](C)C(=O)N[C@H](C(=O)N1CCN(Cc2ccccc2)C[C@H]1C(=O)N1Cc2ccccc2C1)C(C)C [Compound 85, (S)-N-{(S)-1-[(S)-4-Benzyl-2-(1,3-dihydro-isoindole-2-carbonyl)-piperazine-1-carbonyl]-2-methyl-propyl}-2-methylamino-propionamide] | < 10 | –
CN[C@@H](C)C(=O)N[C@H](C(=O)N1CCN(C(=O)OCc2ccccc2)C[C@H]1C(=O)NC1CCCc2ccccc21)C(C)C (stereo partly drawn) [Compound 13, (S)-4-[(S)-3-Methyl-2-((S)-2-methylamino-propionylamino)-butyryl]-3-(1,2,3,4-tetrahydro-naphthalen-1-ylcarbamoyl)-piperazine-1-carboxylic acid benzyl ester] | – | < 10
CN[C@@H](C)C(=O)N[C@H](C(=O)N1CCN(Cc2ccc(F)cc2)C[C@H]1C(=O)NC1CCCc2ccccc21)C(C)C (stereo partly drawn) [Compound 10, (S)-4-(4-Fluoro-benzyl)-1-[(S)-3-methyl-2-((S)-2-methylamino-propionylamino)-butyryl]-piperazine-2-carboxylic acid (1,2,3,4-tetrahydro-naphthalen-1-yl)-amide] | – | < 10
